Measured values as given in US6172099A, “Tricyclic compounds having saturated rings and medicinal compositions containing the same” (Asahi Kasei Kogyo Kabushiki Kaisha, priority 1997, dated 2001).
Structures can show the parent of a compound that is named as a salt. Where two headings read alike, the source gives them in different places.

Assays:
human β3 = target: T1, human β3 (Homo sapiens, UniProt P13945); test: Human β3-agonist activity (cAMP accumulation in CHO cells transfected with human β3 gene); type: cell-based
T1 construct: inserted the 1st exon of human β3 gene was transfected; expressed in transfected cells; host or cells: CHO cells (Chinese hamster ovary), pcDNA3 vector
Procedure: Human β3-agonist Activity Human β3-agonist activity was examined using CHO cells (chinese hamster ovarian cells) to which pcDNA3 (in vitrogen) inserted the 1st exon of human β3 gene was transfected. Human β3 fragment was obtained by PCR using human fat tissue cDNA (supplied from Clontech) with a […] [Krief et al, J. Clin. Invest., Vol. 91, p344-349 (1993)]. And then full length of human […] was cloned using this fragment as a probe.
The cells were cultured in a HAM F-12 medium containing 10% of fetal bovine serum, 400 μg/ml of Geneticin (Gibco BRL), 100 U/ml penicillin and 100 μg/ml streptomycin. 5×10^5 cells were placed on a 6-well plate and cultured for 24 hours, after which the medium was changed to a HAM F-12 medium without serum and was kept for 2 hours. Each test compound was first dissolved in DMSO, and then diluted with a HAM F-12 medium containing 1 mM isobutylmethyl xanthine and 1 mM ascorbic acid. A 10-fold dilution in the range of 10^-5 to 10^-12 M was added into the cells.
After culturing for 30 minutes, culture medium was withdrawn, 0.5 ml of 1 N NaOH was added and was kept for 20 minutes. Ater then 0.5 ml of 1 N acetic acid was added with subsequent agitation and centrifugation. Finally, concentration of cAMP were analyzed using cAMP EIA KIT (Cayman). […] CL316,243 was synthesized by the method given in J. Med. Chem., Vol. 35, p3081-3084 (1992).

rat adipocytes = test: Lipolytic activity in rat adipocytes (glycerol concentration); type: cell-based; conditions: Adipocyte; for EC50: rat adipocytes, glycerol release, 37° C., 1 hour, read-out: ED50 (the source's name); for Emax: Rattus norvegicus, 1 h, read-out: Intrinsic activity(%)
Procedure: Lipolytic Activity in Rat Adipocytes Adipose tissues were collected from epididymis and minced. Krebs-Ringer buffer solution containing 1 mg/ml Collagenase (Sigma) and 1% of bovine serum albumin was added in an amount of 3 ml per one gram of the tissue. These cells were then incubated at 37° C. for 30 minutes with shaking and then undigested tissues were removed with a nylon filter. The resulting adipocytes were washed four times with Krebs-Ringer buffer, and then cells was diluted to 2×10^5 cells/ml with Krebs-Ringer buffer solution containing 4% of bovine serum albumin. These cells were transferred to Eppendorf tubes each in an amount of 300 μl. Each 300 μl of a culture medium containing the test compounds was added to these tubes and was held at 37° C. for 1 hour with shaking. Stimulation was stopped by cooling with ice. After centrifugation, the adipocytes were taken off with an aspirator, and then the concentration of glycerol was determined using F-KIT GLYCEROL (Behringer-Manheim).

[1] = Blood glucose lowering effect in glucose-loaded mice; type: in vivo, male ddy mice; conditions: intraperitoneal, 10 mg/kg; 1 hour; glucose load 2 g/kg s.c.
Procedure: Blood Glucose Lowering Effect and Lipolytic Effect
Glucose was subcutaneously administered to male ddy mice (supplied from the dirm Nippon Charles Liver) of 6 weeks age at a dose of 2 g/kg. The animals were also treated with either one of test compounds via oral or intraperitoneal administration at a dose of 0.1 ml per 10 g of body weight. After one hour, blood sample was taken from abdominal aorta, serum was separated and served as the sample.
Blood Glucose Lowering Effect:
The samples prepared as above were analyzed for the serum glucose concentration by Auto analyzer (SUPER Z of the firm M. C. Medical). For the analyzer kit, Glucose 11 HA TEST WAKO (of the firm Wako Pure Chemical) was used.
% decrease in blood glucose=[(A-B)/(A-C)]×100
in whcih A represents the glucose concentration after loading glucose, B represents the glucose concentration after administration of the compound and C is the usual level of the glucose concentration.

[2] = Lipolytic effect in mice (serum free fatty acid); type: in vivo, male ddy mice; conditions: intraperitoneal, 10 mg/kg; 1 hour
Procedure: Blood Glucose Lowering Effect and Lipolytic Effect Glucose was subcutaneously administered to male ddy mice (supplied from the dirm Nippon Charles Liver) of 6 weeks age at a dose of 2 g/kg. […] After one hour, blood sample was taken from abdominal aorta, serum was separated and served as the sample. Lipolytic Effect: Amount of free fatty acid in the samples was determined using NEFA HA TEST WAKO (of the firm Wako Pure Chemical). […] Therefore, it was shown that they are useful for preventive and therapeutic treatment of hyperlipemia and obesity.

[3] = design: species or system male ddy mice; conditions: mouse, in vivo, po, 100 mg/kg
Procedure: The compounds of Example 2 was orally administered to 6 weeks age male ddy mice (supplied from the firm Nippon Chrles Liver) at a dose of 100 mg/kg.

[4] = CHO cells expressing human β3, cAMP, 30 minutes; read-out: ED50 (the source's name)
[5] = CHO, read-out: Intrinsic activity(%)

T1 sequence (P13945 1-402 limits assumed): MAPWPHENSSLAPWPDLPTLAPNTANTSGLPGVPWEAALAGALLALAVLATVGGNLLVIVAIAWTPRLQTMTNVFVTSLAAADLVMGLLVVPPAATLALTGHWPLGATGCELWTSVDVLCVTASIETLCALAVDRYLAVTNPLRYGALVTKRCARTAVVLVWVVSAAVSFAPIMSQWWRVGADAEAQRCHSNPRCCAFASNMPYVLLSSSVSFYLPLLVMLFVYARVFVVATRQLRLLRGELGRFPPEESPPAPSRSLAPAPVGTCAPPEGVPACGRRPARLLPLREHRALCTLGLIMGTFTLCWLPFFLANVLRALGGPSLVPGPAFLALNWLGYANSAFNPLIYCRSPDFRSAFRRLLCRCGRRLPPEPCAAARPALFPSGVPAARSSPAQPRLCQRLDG

Compound	Emax (human β3; CHO; read-out: Intrinsic activity(%)) [%]	EC50 (human β3; [4]) [nM]	Emax (human β3; [5]) [%]	EC50 (rat adipocytes) [nM]	Emax (rat adipocytes) [%]	reduction of blood glucose [1]	increase of free fatty acid concentration [2]	fatal cases [3]
C[C@H](Cc1ccc(OCC(=O)O)cc1)NC[C@H](O)c1cccc(Cl)c1 [BRL37344, reference compound]	29	–	–	–	–	–	–	–
CS(=O)(=O)Nc1cccc(C(O)CNCCOc2ccc3c4c([nH]c3c2)CCCC4)c1 (racemic) [Example 17, (±)-N-[3-[2-[2-(5,6,7,8-tetrahydro-9H-carbazol-2-yloxy)ethylamino]-1-hydroxyethyl]phenyl]methanesulfonamide hydrochloride]	–	92	78	–	–	–	–	–
CS(=O)(=O)Nc1cc([C@@H](O)CNCCOc2ccc3c4c(sc3c2)CCCC4)ccc1O [Example 28, (R)-N-[5-[2-[2-(6,7,8,9-tetrahydrodibenzothiophen-3-yloxy)ethylamino]-1-hydroxyethyl]-2-hydroxyphenyl]methanesulfonamide hydrochloride]	–	0.11	96	400	140	–	–	–
CS(=O)(=O)Nc1cc([C@@H](O)CNCCOc2ccc3c4c([nH]c3c2)CCCC4)ccc1O [Example 6, (R)-N-[5-[2-[2-(5,6,7,8-tetrahydro-9H-carbazol-2-yloxy)ethylamino]-1-hydroxyethyl]-2-hydroxyphenyl]methanesulfonamide hydrochloride]	–	0.021	84	200	132	–	–	–
CS(=O)(=O)Nc1cc(C(O)CNCCOc2ccc3c4c([nH]c3c2)CCCC4)ccc1Cl (racemic) [Example 14, (±)-N-[5-[2-[2-(5,6,7,8-tetrahydro-9H-carbazol-2-yloxy)ethylamino]-1-hydroxyethyl]-2-chlorophenyl]methanesulfonamide hydrochloride]	–	25	62	–	–	–	–	–
CS(=O)(=O)Nc1cc([C@@H](O)CNCCOc2ccc3c4c([nH]c3c2)CCCC4)ccc1F [Example 9, (R)-N-[5-[2-[2-(5,6,7,8-tetrahydro-9H-carbazol-2-yloxy)ethylamino]-1-hydroxyethyl]-2-fluorophenyl]methanesulfonamide hydrochloride]	–	29	47	–	–	–	–	–
CN(C)S(=O)(=O)Nc1cc([C@@H](O)CNCCOc2ccc3c4c([nH]c3c2)CCCC4)ccc1O.Cl [Example 2, (R)-N'-[5-[2-[2-(5,6,7,8-tetrahydro-9H-carbazol-2-yloxy)ethylamino]-1-hydroxyethyl]-2-hydroxyphenyl]-N,N-dimethylsulfamide hydrochloride]	–	0.26	63	2000	127	showed a reduction of blood glucose	showed an increase of free fatty acid concentration	no fatal case was found
CS(=O)(=O)Nc1cc([C@@H](O)CNCCOc2ccc3c4c(oc3c2)CCCC4)ccc1O [Example 26, (R)-N-[5-[2-[2-(6,7,8,9-tetrahydrodibenzofuran-3-yloxy)ethylamino]-1-hydroxyethyl]-2-hydroxyphenyl]methanesulfonamide hydrochloride]	–	31	111	39	118	–	–	–
CS(=O)(=O)Nc1cc([C@@H](O)CNCCOc2ccc3c4c([nH]c3c2)CCCC4)ccc1OCc1ccccc1 [Example 5, (R)-N-[5-[2-[2-(5,6,7,8-tetrahydro-9H-carbazol-2-yloxy)ethylamino]-1-hydroxyethyl]-2-benzyloxyphenyl]methanesulfonamide hydrochloride]	–	570	101	–	–	–	–	–
CC(C)NCC(O)c1ccc(O)c(O)c1 (stereo not shown) [isoproterenol, reference compound]	–	–	–	92	100	–	–	–
CN(C)S(=O)(=O)Nc1cc([C@@H](O)CNCCOc2ccc3c4c(oc3c2)CCCC4)ccc1O [Example 22, (R)-N'-[5-[2-[2-(6,7,8,9-tetrahydrodibenzofuran-3-yloxy)ethylamino]-1-hydroxyethyl]-2-hydroxyphenyl]-N,N-dimethylsulfamide hydrochloride]	–	27	84	–	–	–	–	–
CS(=O)(=O)Nc1cc([C@@H](O)CNCCOc2ccc3c4c([nH]c3c2)CCCC4)ccc1Br [Example 15, (R)-N-[5-[2-[2-(5,6,7,8-tetrahydro-9H-carbazol-2-yloxy)ethylamino]-1-hydroxyethyl]-2-bromophenyl]methanesulfonamide hydrochloride]	–	40	72	–	–	–	–	–
